Consider two compounds from US20230416247A1, “DRUG-LIKE MOLECULES AND METHODS FOR THE THERAPEUTIC TARGETING OF MICRORNA-21” (University of Washington, priority 2020, published 2023).

Entries after “also recorded” stand apart in the source; their conditions may differ.

Assay [1] deals with pre-miR-21 processing by Dicer-TRBP. The assay can be described thus: Dicer/TRBP in vitro processing of pre-miR-21. The class given is biochemical, human. Conditions: for inhibition of Dicer processing: pre-miR-21 compared with pre-Let7. As for the experimental part:
In order to further assess the biochemical activity of our compounds, processing of pre-miR-21 and pre-Let7 by Dicer-TRBP in vitro was compared. FIGS. 9A and 9B show selective response in the rate of processing under early phase reaction conditions, before significant product builds up, for pre-miR21 compared to pre-Let7.
The results are specific to the initial rates (0.25-5 min) of the reaction. […] This is inevitable because Dicer binds the product tightly. This assay and method of inhibiting miR-21 synthesis is different than typical enzymatic assays. First, the small molecule is targeting the substrate of the enzymatic assay. High affinity compounds that change the structure of the substrate may reduce processing but might not inhibit processing completely. Rather, changes in the specificity constant (kcat/Km), are a better measure of small molecule inhibition than traditional Ki's.
Dicer/TRBP. The Dicer/TRBP enzyme complex was expressed and purified using published methods and stored at −80° C. in 20 μL aliquots until needed. Briefly, the gene encoding human full-length Dicer was inserted into a modified pFastBac1 vector (Invitrogen), which has an N-terminal glutathione-S-transferase (GST) tag. The GST fusion proteins were expressed in HiFive insect cells following standard procedures and isolated by glutathione affinity chromatography using buffer A (20 mM Tris-HCl pH 8.0, 150 mM NaCl, 2 mM DTT). After on-column cleavage by Tobacco Etch Virus (TEV) protease overnight, the proteins were eluted, concentrated and loaded onto Superdex 200 GL column equilibrated in buffer A. Sequences coding for human full-length TRBP2 were cloned into a modified pET28a vector with an N-terminal GB1 tag. The clones were transformed into Rosetta 2 cells and the transformants were grown in LB media at 37° C. until the cells reached a density corresponding to an OD reading of 0.8 at 600 nm. Protein expression was induced by addition of 0.2 mM IPTG at 18° C. for 20 hours. The cells were harvested, pelleted and resuspended in 20 mM Tris-HCl pH 8.0, 500 mM NaCl, mM imidazole, with 5 mM β-ME. […]

In assay [2] the test system is PDCD4 in AGS cells. The assay can be described thus: Western blot of PDCD4 in AGS cells. Conditions: 48 hours of incubation, relative to DMSO control, normalized to β-actin. The class given is cell-based, human. As for the experimental part: Data in FIG. 16B are reported as enhancement of PDCD4 levels, relative to DMSO control (no compound added).
Western blot analysis. Western blot analysis was conducted according to standard protocols. Briefly, proteins were collected from cells and lysed and the Bradford assay was used to measure protein concentrations. Quantification of protein expression was conducted using the image analysis software ImageJ.

Assay [3] relates to miR-16, miR-28, miR-182 in gastric (AGS) cells. As to the kind of experiment: qRT-PCR of miR-16, miR-28, miR-182 in AGS cells. The format is cell-based, human. The settings on record: 24-72 hours post incubation, vs DMSO. As for the experimental part: Levels of each microRNA were measured at different times post incubation (24-72 hours) by standard qRT-PCR, normalized to internal controls (U6 or U8 snRNA), in both gastric (AGC) and pancreatic (ASPC1) cell lines. Levels of the microRNA are generally the same, within experimental uncertainty, in the absence (DMSO) or presence of compound −0052 (30).
FIGS. 15A-15F show the levels of mature miR-16, miR-28, and miR-182 are not consistently affected by the compounds in both gastric (AGS) and pancreatic (ASPC1) cell lines, over multiple time scales (24-72 hours), relative to control where DMSO was added, but no compound.
Cell line maintenance. Using the Cancer Cell Line Encyclopedia (CCLE), in-house cancer cell lines were screened to identify cancer and tissue types with varying levels of miR-21 expression. Experiments were performed using the human-derived cell lines AGS (gastric cancer) and AsPC-1 (pancreatic cancer). […]
Quantitative real time PCR analysis. […] RNA concentration was assessed with the NanoDrop ND-1000 spectrophotometer (ThermoFisher Scientific). […] Expression of miR-21 was assessed utilizing the TaqMan microRNA assay (Applied Biosystems). […] All experiments were performed in triplicate, with all samples normalized to the internal controls and relative expression levels calculated using the 2^ΔΔCt method.

With `O=c1[nH]c(Nc2ccc(N3CCNCC3)cn2)nc2cccnc12` [Compound 25], in assay [1] (2 μM compound vs no compound, initial rates), the “pre-miR-21 processing by DICER/TRBP” value is “processing activity is visibly reduced; also recorded: visibly reduced pre-miR-21 processing”. The “inhibition of Dicer processing” value in assay [1] is recorded as “specifically inhibit Dicer processing”. The “levels of PDCD4 (Western blot)” value in assay [2] (listed as −0045) is on record as “an increase was observed; also recorded: increase levels of PDCD4”.

With `O=c1[nH]c(Nc2ccc(N3CCNCC3)cn2)nc2cnccc12` [Compound 30], the “inhibition of Dicer processing” value in assay [1] was “specifically inhibit Dicer processing”. In assay [3], the “cellular levels of miR-16, miR-28, miR-182” value was “does not affect cellular levels”. Moreover, in assay [2] (listed as −0052), the “levels of PDCD4 (Western blot)” value is on record as “an increase was observed; also recorded: increase levels of PDCD4”.
